# Values of other authors as cited in US10695318B2, “Methods and compositions for improving cognitive function” (MARS, Incorporated, priority 2006, dated 2020).
# Test system: global CBF
# Details: inhalation of 5% C02 as vasodilative stimulus
compound,measurement,value
O=C=O [C02],global CBF increases,approximately 87%
